Results: patent publication US20060252820A1, “Composition for oral administration containing alkylene dioxybenzene derivative” (priority 2003, published 2006)

Assay: Conventional preparation of MKC-242 administered to a human
Assay type: in vivo
Conditions: conventional preparation (tablet) administered to a human

- symptoms recognized (depending on drug concentration in plasma, all slight): nausea, dizziness, orthostatic syncope
- half-life (plasma, oral, read-out: half-life T1/2): 2 to 5 h
SMILES: Cl.c1ccc2c(c1)OC[C@H](CNCCCOc1ccc3c(c1)OCO3)O2 [MKC-242, 5-[3-[[(2S)-1,4-benzodioxan-2-ylmethyl]amino]propoxy]-1,3-benzodioxole hydrochloride]
